Assay results reported in US20260356819A1, “OXOISOINDOLINYL-SUBSTITUTED […] DERIVATIVE AND USE THEREOF” (GLUETACS THERAPEUTICS (SHANGHAI) CO., LTD., priority 2023, published 2026).

How the values were obtained:
Type in all cases: cell-based
Conditions in all cases: compounds at 50 nM and 500 nM
WEE1 = molecular target: T1, WEE1 (Homo sapiens, UniProt P30291+Q96SW2); experiment: Western blot degradation of WEE1 in hPBMCs (24 h)
T1 construct: The supernatant was aspirated as the extracted total cell protein; endogenous in cells; host or cells: human peripheral blood mononuclear cells (hPBMCs)
T1 sequence (P30291 whole entry): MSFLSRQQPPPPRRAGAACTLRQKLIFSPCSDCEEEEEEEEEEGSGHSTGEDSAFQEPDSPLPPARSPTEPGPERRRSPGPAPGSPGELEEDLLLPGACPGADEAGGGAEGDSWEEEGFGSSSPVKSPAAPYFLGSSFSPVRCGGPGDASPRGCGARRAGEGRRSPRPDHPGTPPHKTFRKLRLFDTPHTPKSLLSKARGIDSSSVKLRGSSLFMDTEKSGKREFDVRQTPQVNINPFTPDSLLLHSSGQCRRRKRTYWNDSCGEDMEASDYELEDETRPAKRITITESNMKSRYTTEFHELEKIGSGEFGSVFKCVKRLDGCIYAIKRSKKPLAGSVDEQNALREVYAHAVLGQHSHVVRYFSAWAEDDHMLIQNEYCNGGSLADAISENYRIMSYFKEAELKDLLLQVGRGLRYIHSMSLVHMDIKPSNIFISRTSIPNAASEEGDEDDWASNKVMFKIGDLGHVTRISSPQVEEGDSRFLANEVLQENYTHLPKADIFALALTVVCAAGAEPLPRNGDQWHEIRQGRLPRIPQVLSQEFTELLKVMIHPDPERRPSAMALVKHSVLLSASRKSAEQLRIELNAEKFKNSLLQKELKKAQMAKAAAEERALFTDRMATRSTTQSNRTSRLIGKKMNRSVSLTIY
T1 sequence (Q96SW2 whole entry): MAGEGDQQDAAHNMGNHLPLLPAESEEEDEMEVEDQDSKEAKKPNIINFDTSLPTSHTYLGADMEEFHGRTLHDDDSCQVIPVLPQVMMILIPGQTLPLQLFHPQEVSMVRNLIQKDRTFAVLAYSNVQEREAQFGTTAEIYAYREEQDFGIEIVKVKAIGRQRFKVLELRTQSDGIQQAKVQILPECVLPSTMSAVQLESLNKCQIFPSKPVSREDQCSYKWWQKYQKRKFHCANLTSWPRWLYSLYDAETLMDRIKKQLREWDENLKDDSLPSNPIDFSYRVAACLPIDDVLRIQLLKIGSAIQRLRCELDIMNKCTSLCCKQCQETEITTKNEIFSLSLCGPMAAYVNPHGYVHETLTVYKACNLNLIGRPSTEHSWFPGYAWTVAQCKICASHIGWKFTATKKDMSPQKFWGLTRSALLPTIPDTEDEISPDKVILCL
T1 sequence (Q16531 whole entry partner): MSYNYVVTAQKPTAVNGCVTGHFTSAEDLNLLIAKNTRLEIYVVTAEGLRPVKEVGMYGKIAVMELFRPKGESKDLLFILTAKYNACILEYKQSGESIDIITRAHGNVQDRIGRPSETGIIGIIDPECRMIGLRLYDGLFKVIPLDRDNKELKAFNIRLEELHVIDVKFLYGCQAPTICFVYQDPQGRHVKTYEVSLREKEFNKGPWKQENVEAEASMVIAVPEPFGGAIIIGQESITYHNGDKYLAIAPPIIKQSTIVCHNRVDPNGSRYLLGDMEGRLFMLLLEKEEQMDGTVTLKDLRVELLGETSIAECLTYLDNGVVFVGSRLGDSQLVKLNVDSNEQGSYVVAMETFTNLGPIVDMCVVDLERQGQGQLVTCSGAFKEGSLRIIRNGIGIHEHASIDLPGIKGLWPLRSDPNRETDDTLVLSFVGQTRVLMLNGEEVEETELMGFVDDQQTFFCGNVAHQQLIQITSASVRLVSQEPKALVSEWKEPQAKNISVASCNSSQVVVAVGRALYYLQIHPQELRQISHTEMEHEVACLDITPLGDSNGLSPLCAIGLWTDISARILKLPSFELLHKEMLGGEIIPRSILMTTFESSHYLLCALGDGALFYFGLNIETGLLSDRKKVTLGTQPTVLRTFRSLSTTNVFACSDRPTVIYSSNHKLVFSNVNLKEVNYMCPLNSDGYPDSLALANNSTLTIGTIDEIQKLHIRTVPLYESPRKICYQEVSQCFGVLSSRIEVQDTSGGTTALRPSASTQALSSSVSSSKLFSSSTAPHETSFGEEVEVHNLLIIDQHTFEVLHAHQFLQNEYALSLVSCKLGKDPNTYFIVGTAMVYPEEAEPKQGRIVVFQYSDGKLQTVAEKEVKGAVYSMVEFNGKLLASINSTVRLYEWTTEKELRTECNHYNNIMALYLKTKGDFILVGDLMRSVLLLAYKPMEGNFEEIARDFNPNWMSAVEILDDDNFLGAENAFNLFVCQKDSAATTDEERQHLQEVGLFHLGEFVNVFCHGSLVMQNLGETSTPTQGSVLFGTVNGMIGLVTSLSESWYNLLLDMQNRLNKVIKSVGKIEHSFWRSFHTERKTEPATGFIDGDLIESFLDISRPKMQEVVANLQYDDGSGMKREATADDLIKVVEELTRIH
Procedure, shortened: (§1)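 In this assay, each compound was incubated with human PBMCs for 24 h at 50 nM and 500 nM. Target levels were measured by Western blot densitometry normalised to an internal control.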

IKZF1 = molecular target: T2, IKZF1 (Homo sapiens, UniProt Q13422+Q96SW2); experiment: Western blot degradation of IKZF1 in hPBMCs (24 h)
T2 construct: The supernatant was aspirated as the extracted total cell protein; endogenous in cells; host or cells: human peripheral blood mononuclear cells (hPBMCs)
T2 sequence (Q13422 whole entry): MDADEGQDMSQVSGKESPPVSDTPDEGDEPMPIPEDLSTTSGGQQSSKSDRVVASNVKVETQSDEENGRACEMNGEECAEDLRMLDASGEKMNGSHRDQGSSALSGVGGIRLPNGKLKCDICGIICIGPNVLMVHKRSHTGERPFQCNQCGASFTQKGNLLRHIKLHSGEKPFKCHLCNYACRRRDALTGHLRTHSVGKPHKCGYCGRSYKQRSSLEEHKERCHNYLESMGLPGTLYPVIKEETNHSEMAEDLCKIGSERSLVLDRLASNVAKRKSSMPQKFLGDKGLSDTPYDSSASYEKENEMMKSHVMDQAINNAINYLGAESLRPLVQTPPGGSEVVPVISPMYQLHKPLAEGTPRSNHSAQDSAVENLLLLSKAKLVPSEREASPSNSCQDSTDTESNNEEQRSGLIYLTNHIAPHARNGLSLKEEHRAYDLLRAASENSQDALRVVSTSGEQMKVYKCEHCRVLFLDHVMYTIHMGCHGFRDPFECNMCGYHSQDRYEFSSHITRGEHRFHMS
T2 sequence (Q96SW2 whole entry): as the sequence (Q96SW2 whole entry) above
T2 sequence (Q16531 whole entry partner): as the sequence (Q16531 whole entry partner) above
Procedure, shortened: as §1

IKZF2 = molecular target: T3, IKZF2 (Homo sapiens, UniProt Q96SW2+Q9UKS7); experiment: Western blot degradation of IKZF2 in hPBMCs (24 h)
T3 construct: The supernatant was aspirated as the extracted total cell protein; endogenous in cells; host or cells: human peripheral blood mononuclear cells (hPBMCs)
Procedure, shortened: as §1

IKZF3 = molecular target: T4, IKZF3 (Homo sapiens, UniProt Q96SW2+Q9UKT9); experiment: Western blot degradation of IKZF3 in hPBMCs (24 h)
T4 construct: The supernatant was aspirated as the extracted total cell protein; endogenous in cells; host or cells: human peripheral blood mononuclear cells (hPBMCs)
T4 sequence (Q9UKT9 whole entry): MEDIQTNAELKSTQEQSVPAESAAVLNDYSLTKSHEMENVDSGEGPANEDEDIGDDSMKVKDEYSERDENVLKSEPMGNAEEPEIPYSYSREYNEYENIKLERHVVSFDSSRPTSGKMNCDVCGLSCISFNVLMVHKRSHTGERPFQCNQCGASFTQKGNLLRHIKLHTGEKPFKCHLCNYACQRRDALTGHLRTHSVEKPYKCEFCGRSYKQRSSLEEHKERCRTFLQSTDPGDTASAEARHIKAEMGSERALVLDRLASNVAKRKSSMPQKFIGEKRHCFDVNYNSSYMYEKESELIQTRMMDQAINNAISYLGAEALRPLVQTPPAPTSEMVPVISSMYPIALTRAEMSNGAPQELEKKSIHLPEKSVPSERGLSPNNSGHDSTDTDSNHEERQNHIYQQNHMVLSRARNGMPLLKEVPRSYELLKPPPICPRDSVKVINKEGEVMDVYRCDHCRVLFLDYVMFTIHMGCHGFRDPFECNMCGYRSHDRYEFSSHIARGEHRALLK
T4 sequence (Q96SW2 whole entry): as the sequence (Q96SW2 whole entry) above
T4 sequence (Q16531 whole entry partner): as the sequence (Q16531 whole entry partner) above
Procedure, shortened: as §1

CK1α = molecular target: T5, CK1α (Homo sapiens, UniProt P48729+Q96SW2); experiment: Western blot degradation of CK1α in hPBMCs (24 h)
T5 construct: The supernatant was aspirated as the extracted total cell protein; endogenous in cells; host or cells: human peripheral blood mononuclear cells (hPBMCs)
T5 sequence (P48729 whole entry): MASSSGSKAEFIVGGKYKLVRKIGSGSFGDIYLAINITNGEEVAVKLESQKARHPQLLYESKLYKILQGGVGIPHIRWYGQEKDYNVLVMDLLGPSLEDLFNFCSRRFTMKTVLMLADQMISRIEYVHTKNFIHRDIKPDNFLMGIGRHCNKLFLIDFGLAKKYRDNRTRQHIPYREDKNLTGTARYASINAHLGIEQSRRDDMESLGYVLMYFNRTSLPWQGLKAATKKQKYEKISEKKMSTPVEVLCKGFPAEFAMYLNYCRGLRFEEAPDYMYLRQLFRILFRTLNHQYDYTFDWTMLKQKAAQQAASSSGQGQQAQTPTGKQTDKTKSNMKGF
T5 sequence (Q96SW2 whole entry): as the sequence (Q96SW2 whole entry) above
T5 sequence (Q16531 whole entry partner): as the sequence (Q16531 whole entry partner) above
Procedure, shortened: as §1

GSPT1 = molecular target: T6, GSPT1 (Homo sapiens, UniProt P15170+Q96SW2); experiment: Western blot degradation of GSPT1 in hPBMCs (24 h)
T6 construct: The supernatant was aspirated as the extracted total cell protein; endogenous in cells; host or cells: human peripheral blood mononuclear cells (hPBMCs)
T6 sequence (P15170 whole entry): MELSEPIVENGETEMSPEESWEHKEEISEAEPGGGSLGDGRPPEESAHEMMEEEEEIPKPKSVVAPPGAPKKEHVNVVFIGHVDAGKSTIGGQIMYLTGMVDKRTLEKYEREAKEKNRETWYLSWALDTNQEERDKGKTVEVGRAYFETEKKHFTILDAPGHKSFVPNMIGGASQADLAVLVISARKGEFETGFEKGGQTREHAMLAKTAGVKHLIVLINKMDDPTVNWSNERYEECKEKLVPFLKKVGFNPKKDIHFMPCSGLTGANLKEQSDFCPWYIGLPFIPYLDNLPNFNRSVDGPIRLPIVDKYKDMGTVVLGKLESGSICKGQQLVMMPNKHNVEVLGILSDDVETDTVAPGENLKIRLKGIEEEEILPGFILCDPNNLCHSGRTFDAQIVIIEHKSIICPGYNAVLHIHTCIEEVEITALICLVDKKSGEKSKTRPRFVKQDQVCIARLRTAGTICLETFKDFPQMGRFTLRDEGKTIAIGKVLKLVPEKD
T6 sequence (Q96SW2 whole entry): as the sequence (Q96SW2 whole entry) above
T6 sequence (Q16531 whole entry partner): as the sequence (Q16531 whole entry partner) above
Procedure, shortened: as §1

## O=C1CCN(N2C(=O)c3ccc(CN4CC=C(c5ccoc5)CC4)cc3C2=O)C(=O)N1 [GT-07442, 2-(2,4-dioxotetrahydropyrimidin-1(2H)-yl)-5-((4-(furan-3-yl)-3,6-dihydropyridin-1(2H)-yl)methyl)isoindoline-1,3-dione]
WEE1
  WEE1 substrate protein remaining %: A (0% ≤ substrate protein remaining % ≤80%)
IKZF1
  IKZF1 substrate protein remaining %: B (80%< substrate protein remaining % ≤100%)
IKZF2
  IKZF2 substrate protein remaining %: B (80%< substrate protein remaining % ≤100%)
IKZF3
  IKZF3 substrate protein remaining %: A (0% ≤ substrate protein remaining % ≤80%)
CK1α
  CK1α substrate protein remaining %: B (80%< substrate protein remaining % ≤100%)
GSPT1
  GSPT1 substrate protein remaining %: A (0% ≤ substrate protein remaining % ≤80%)

## O=C1CCN(N2C(=O)c3ccc(CN4CC=C(c5cncc(Cl)c5)CC4)cc3C2=O)C(=O)N1 [GT-07491, 5-((5-chloro-3′,6′-dihydro-[3,4′-bipyridin]-1′ (2′H)-yl)methyl)-2-(2,4-dioxotetrahydropyrimidin-1(2H)-yl)isoindoline-1,3-dione]
WEE1
  WEE1 substrate protein remaining %: A (0% ≤ substrate protein remaining % ≤80%)
IKZF1
  IKZF1 substrate protein remaining %: B (80%< substrate protein remaining % ≤100%)
IKZF2
  IKZF2 substrate protein remaining %: B (80%< substrate protein remaining % ≤100%)
IKZF3
  IKZF3 substrate protein remaining %: B (80%< substrate protein remaining % ≤100%)
CK1α
  CK1α substrate protein remaining %: B (80%< substrate protein remaining % ≤100%)
GSPT1
  GSPT1 substrate protein remaining %: A (0% ≤ substrate protein remaining % ≤80%)

## O=C1CCN(N2C(=O)c3ccc(CN4CC=C(c5ncccc5F)CC4)cc3C2=O)C(=O)N1 [GT-07492, 2-(2,4-dioxotetrahydropyrimidin-1(2H)-yl)-5-((3-fluoro-3′,6′-dihydro-[2,4′-bipyridin]-1′ (2′H)-yl)methyl)isoindoline-1,3-dione]
WEE1
  WEE1 substrate protein remaining %: B (80%< substrate protein remaining % ≤100%)
IKZF1
  IKZF1 substrate protein remaining %: B (80%< substrate protein remaining % ≤100%)
IKZF2
  IKZF2 substrate protein remaining %: B (80%< substrate protein remaining % ≤100%)
IKZF3
  IKZF3 substrate protein remaining %: B (80%< substrate protein remaining % ≤100%)
CK1α
  CK1α substrate protein remaining %: A (0% ≤ substrate protein remaining % ≤80%)
GSPT1
  GSPT1 substrate protein remaining %: B (80%< substrate protein remaining % ≤100%)

## O=C1CCN(N2C(=O)c3ccc(CN4CCC(c5ccnc(F)c5F)CC4)cc3C2=O)C(=O)N1 [GT-07493, 5-((4-(2,3-difluoropyridin-4-yl)piperidin-1-yl)methyl)-2-(2,4-dioxotetrahydropyrimidin-1(2H)-yl)isoindoline-1,3-dione]
WEE1
  WEE1 substrate protein remaining %: B (80%< substrate protein remaining % ≤100%)
IKZF1
  IKZF1 substrate protein remaining %: B (80%< substrate protein remaining % ≤100%)
IKZF2
  IKZF2 substrate protein remaining %: B (80%< substrate protein remaining % ≤100%)
IKZF3
  IKZF3 substrate protein remaining %: A (0% ≤ substrate protein remaining % ≤80%)
CK1α
  CK1α substrate protein remaining %: A (0% ≤ substrate protein remaining % ≤80%)
GSPT1
  GSPT1 substrate protein remaining %: B (80%< substrate protein remaining % ≤100%)

## O=C1CCN(N2C(=O)c3ccc(CN4CC=C(c5ccnc(F)c5F)CC4)cc3C2=O)C(=O)N1 [GT-07494, 5-((2′,3′-difluoro-3,6-dihydro-[4,4′-bipyridin]-1(2H)-yl)methyl)-2-(2,4-dioxotetrahydropyrimidin-1(2H)-yl)isoindoline-1,3-dione]
WEE1
  WEE1 substrate protein remaining %: A (0% ≤ substrate protein remaining % ≤80%)
IKZF1
  IKZF1 substrate protein remaining %: B (80%< substrate protein remaining % ≤100%)
IKZF2
  IKZF2 substrate protein remaining %: B (80%< substrate protein remaining % ≤100%)
IKZF3
  IKZF3 substrate protein remaining %: B (80%< substrate protein remaining % ≤100%)
CK1α
  CK1α substrate protein remaining %: A (0% ≤ substrate protein remaining % ≤80%)
GSPT1
  GSPT1 substrate protein remaining %: B (80%< substrate protein remaining % ≤100%)

## O=C1CCN(N2Cc3cc(CN4CCC(c5ccon5)CC4)ccc3C2=O)C(=O)N1 [GT-07495, 1-(5-((4-(isoxazol-3-yl)piperidin-1-yl)methyl)-1-oxoisoindolin-2-yl)dihydropyrimidine-2,4(1H,3H)-dione]
WEE1
  WEE1 substrate protein remaining %: B (80%< substrate protein remaining % ≤100%)
IKZF1
  IKZF1 substrate protein remaining %: B (80%< substrate protein remaining % ≤100%)
IKZF2
  IKZF2 substrate protein remaining %: B (80%< substrate protein remaining % ≤100%)
IKZF3
  IKZF3 substrate protein remaining %: B (80%< substrate protein remaining % ≤100%)
CK1α
  CK1α substrate protein remaining %: A (0% ≤ substrate protein remaining % ≤80%)
GSPT1
  GSPT1 substrate protein remaining %: A (0% ≤ substrate protein remaining % ≤80%)

## O=C1CCN(N2Cc3cc(CN4CCN(c5noc6cc(F)ccc56)CC4)ccc3C2=O)C(=O)N1 [GT-07496, 1-(5-((4-(6-fluorobenzo[d]isoxazol-3-yl)piperazin-1-yl)methyl)-1-oxoisoindolin-2-yl)dihydropyrimidine-2,4(1H,3H)-dione]
WEE1
  WEE1 substrate protein remaining %: B (80%< substrate protein remaining % ≤100%)
IKZF1
  IKZF1 substrate protein remaining %: B (80%< substrate protein remaining % ≤100%)
IKZF2
  IKZF2 substrate protein remaining %: B (80%< substrate protein remaining % ≤100%)
IKZF3
  IKZF3 substrate protein remaining %: B (80%< substrate protein remaining % ≤100%)
CK1α
  CK1α substrate protein remaining %: A (0% ≤ substrate protein remaining % ≤80%)
GSPT1
  GSPT1 substrate protein remaining %: A (0% ≤ substrate protein remaining % ≤80%)

## O=C1CCN(N2Cc3cc(CN4CCN(c5noc6ccncc56)CC4)ccc3C2=O)C(=O)N1 [GT-07497, 1-(5-((4-(isoxazolo[4,5-c]pyridin-3-yl)piperazin-1-yl)methyl)-1-oxoisoindolin-2-yl)dihydropyrimidine-2,4(1H,3H)-dione]
WEE1
  WEE1 substrate protein remaining %: A (0% ≤ substrate protein remaining % ≤80%)
IKZF1
  IKZF1 substrate protein remaining %: A (0% ≤ substrate protein remaining % ≤80%)
IKZF2
  IKZF2 substrate protein remaining %: A (0% ≤ substrate protein remaining % ≤80%)
IKZF3
  IKZF3 substrate protein remaining %: B (80%< substrate protein remaining % ≤100%)
CK1α
  CK1α substrate protein remaining %: A (0% ≤ substrate protein remaining % ≤80%)
GSPT1
  GSPT1 substrate protein remaining %: A (0% ≤ substrate protein remaining % ≤80%)

## O=C1CCN(N2Cc3cc(CN4CCN(c5nsc6cc(F)ccc56)CC4)ccc3C2=O)C(=O)N1 [GT-07500, 1-(5-((4-(6-fluorobenzo[d]isothiazol-3-yl)piperazin-1-yl)methyl)-1-oxoisoindolin-2-yl)dihydropyrimidine-2,4(1H,3H)-dione]
WEE1
  WEE1 substrate protein remaining %: A (0% ≤ substrate protein remaining % ≤80%)
IKZF1
  IKZF1 substrate protein remaining %: A (0% ≤ substrate protein remaining % ≤80%)
IKZF2
  IKZF2 substrate protein remaining %: B (80%< substrate protein remaining % ≤100%)
IKZF3
  IKZF3 substrate protein remaining %: B (80%< substrate protein remaining % ≤100%)
CK1α
  CK1α substrate protein remaining %: A (0% ≤ substrate protein remaining % ≤80%)
GSPT1
  GSPT1 substrate protein remaining %: A (0% ≤ substrate protein remaining % ≤80%)

## O=C1CCN(N2Cc3cc(CN4CCN(c5c[nH]c6ncccc56)CC4)ccc3C2=O)C(=O)N1 [GT-07502, 1-(5-((4-(1H-pyrrolo[2,3-b]pyridin-3-yl)piperazin-1-yl)methyl)-1-oxoisoindolin-2-yl)dihydropyrimidine-2,4(1H,3H)-dione]
WEE1
  WEE1 substrate protein remaining %: A (0% ≤ substrate protein remaining % ≤80%)
IKZF1
  IKZF1 substrate protein remaining %: A (0% ≤ substrate protein remaining % ≤80%)
IKZF2
  IKZF2 substrate protein remaining %: B (80%< substrate protein remaining % ≤100%)
IKZF3
  IKZF3 substrate protein remaining %: B (80%< substrate protein remaining % ≤100%)
CK1α
  CK1α substrate protein remaining %: A (0% ≤ substrate protein remaining % ≤80%)
GSPT1
  GSPT1 substrate protein remaining %: A (0% ≤ substrate protein remaining % ≤80%)

## O=C1CCN(N2Cc3cc(CN4CCC(n5cnc6cc(F)ccc65)CC4)ccc3C2=O)C(=O)N1 [GT-07503, 1-(5-((4-(5-fluoro-1H-benzo[d]imidazol-1-yl)piperidin-1-yl)methyl)-1-oxoisoindolin-2-yl)dihydropyrimidine-2,4(1H,3H)-dione]
WEE1
  WEE1 substrate protein remaining %: A (0% ≤ substrate protein remaining % ≤80%)
IKZF1
  IKZF1 substrate protein remaining %: A (0% ≤ substrate protein remaining % ≤80%)
IKZF2
  IKZF2 substrate protein remaining %: B (80%< substrate protein remaining % ≤100%)
IKZF3
  IKZF3 substrate protein remaining %: B (80%< substrate protein remaining % ≤100%)
CK1α
  CK1α substrate protein remaining %: A (0% ≤ substrate protein remaining % ≤80%)
GSPT1
  GSPT1 substrate protein remaining %: A (0% ≤ substrate protein remaining % ≤80%)

## O=C1CCN(N2Cc3cc(CN4CCC(c5n[nH]c6cc(F)ccc56)CC4)ccc3C2=O)C(=O)N1 [GT-07508, 1-(5-((4-(6-fluoro-1H-indazol-3-yl)piperidin-1-yl)methyl)-1-oxoisoindolin-2-yl)dihydropyrimidine-2,4(1H,3H)-dione]
WEE1
  WEE1 substrate protein remaining %: A (0% ≤ substrate protein remaining % ≤80%)
IKZF1
  IKZF1 substrate protein remaining %: A (0% ≤ substrate protein remaining % ≤80%)
IKZF2
  IKZF2 substrate protein remaining %: A (0% ≤ substrate protein remaining % ≤80%)
IKZF3
  IKZF3 substrate protein remaining %: B (80%< substrate protein remaining % ≤100%)
CK1α
  CK1α substrate protein remaining %: A (0% ≤ substrate protein remaining % ≤80%)
GSPT1
  GSPT1 substrate protein remaining %: A (0% ≤ substrate protein remaining % ≤80%)

## O=C1CCN(N2C(=O)c3ccc(CN4CCC(c5noc6ccccc56)CC4)cc3C2=O)C(=O)N1 [GT-07522, 5-((4-(benzo[d]isoxazol-3-yl)piperidin-1-yl)methyl)-2-(2,4-dioxotetrahydropyrimidin-1(2H)-yl)isoindoline-1,3-dione]
WEE1
  WEE1 substrate protein remaining %: A (0% ≤ substrate protein remaining % ≤80%)
IKZF1
  IKZF1 substrate protein remaining %: A (0% ≤ substrate protein remaining % ≤80%)
IKZF2
  IKZF2 substrate protein remaining %: A (0% ≤ substrate protein remaining % ≤80%)
IKZF3
  IKZF3 substrate protein remaining %: B (80%< substrate protein remaining % ≤100%)
CK1α
  CK1α substrate protein remaining %: A (0% ≤ substrate protein remaining % ≤80%)
GSPT1
  GSPT1 substrate protein remaining %: A (0% ≤ substrate protein remaining % ≤80%)
